From paper PMC9265050, “Inhibition of RNA Binding in SND1 Increases the Levels of miR-1-3p and Sensitizes Cancer Cells to Navitoclax” (Cancers, 2022)

T1: SN1-SN2 (16-339) (Homo sapiens, UniProt Q7KZF4)
T1 construct: gene SND1; SN1-SN2 domain fragment, residues 16-339; N-terminal GST tag cut with TEV protease; E. coli Rosetta 2 (DE3)
T1 sequence (Q7KZF4 16-339): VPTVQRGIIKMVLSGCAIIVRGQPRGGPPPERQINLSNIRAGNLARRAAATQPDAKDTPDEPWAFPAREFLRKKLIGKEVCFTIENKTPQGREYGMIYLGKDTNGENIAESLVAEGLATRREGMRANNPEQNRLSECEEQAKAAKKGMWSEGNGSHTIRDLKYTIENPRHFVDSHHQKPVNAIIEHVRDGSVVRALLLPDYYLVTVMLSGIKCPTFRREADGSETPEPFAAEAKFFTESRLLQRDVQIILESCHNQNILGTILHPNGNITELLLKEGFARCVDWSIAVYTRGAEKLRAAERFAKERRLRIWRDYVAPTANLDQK

T2: SN3-SN4-TSN (340-888) (Homo sapiens, UniProt Q7KZF4)
T2 construct: gene SND1; SN3-SN4-TSN domain fragment, residues 340-888; N-terminal GST tag cut with TEV protease; E. coli Rosetta 2 (DE3)
T2 sequence (Q7KZF4 340-888): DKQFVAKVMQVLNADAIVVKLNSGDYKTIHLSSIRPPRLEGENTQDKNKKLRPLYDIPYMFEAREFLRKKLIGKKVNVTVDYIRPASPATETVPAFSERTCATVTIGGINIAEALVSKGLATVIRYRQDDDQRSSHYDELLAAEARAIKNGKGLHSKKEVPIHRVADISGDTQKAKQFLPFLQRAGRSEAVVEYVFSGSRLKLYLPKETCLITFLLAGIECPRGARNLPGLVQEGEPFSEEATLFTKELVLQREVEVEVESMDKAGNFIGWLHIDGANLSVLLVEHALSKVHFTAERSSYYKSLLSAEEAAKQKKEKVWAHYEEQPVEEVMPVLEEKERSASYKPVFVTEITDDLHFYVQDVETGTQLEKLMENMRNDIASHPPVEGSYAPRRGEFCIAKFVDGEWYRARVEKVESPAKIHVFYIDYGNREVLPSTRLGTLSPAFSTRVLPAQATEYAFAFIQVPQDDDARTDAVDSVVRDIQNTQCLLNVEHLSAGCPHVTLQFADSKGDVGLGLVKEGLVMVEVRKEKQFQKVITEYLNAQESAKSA


What was measured:
SN1-SN2 (16-339) = target: T1, SN1-SN2 (16-339); test: isothermal titration calorimetry, one-site model; assay type: binding
Text: isothermal titration calorimetry, one-site model on SN1-SN2 (16-339)

SN3-SN4-TSN (340-888) = target: T2, SN3-SN4-TSN (340-888); test: isothermal titration calorimetry, one-site model; assay type: binding
Text: isothermal titration calorimetry, one-site model on SN3-SN4-TSN (340-888)

SND1 full-length = SND1 full-length (UniProt Q7KZF4 1-910); test: fluorescence polarization; high affinity, Kd only in figure; inhibited by suramin, not by navitoclax; FP: 20 mM HEPES pH 7.5, 100 mM NaCl, 3 nM labelled RNA, 25 C; EMSA: same buffer with 5 mM EGTA or 5 mM CaCl2, room temperature 1 or 4 h, 20% PAGE 1xTBE 4 C; details: protein: recombinant; tags: GST tag removed by TEV; label: 5' 6-FAM; single strand
SND1 full-length, sequence (Q7KZF4 whole entry): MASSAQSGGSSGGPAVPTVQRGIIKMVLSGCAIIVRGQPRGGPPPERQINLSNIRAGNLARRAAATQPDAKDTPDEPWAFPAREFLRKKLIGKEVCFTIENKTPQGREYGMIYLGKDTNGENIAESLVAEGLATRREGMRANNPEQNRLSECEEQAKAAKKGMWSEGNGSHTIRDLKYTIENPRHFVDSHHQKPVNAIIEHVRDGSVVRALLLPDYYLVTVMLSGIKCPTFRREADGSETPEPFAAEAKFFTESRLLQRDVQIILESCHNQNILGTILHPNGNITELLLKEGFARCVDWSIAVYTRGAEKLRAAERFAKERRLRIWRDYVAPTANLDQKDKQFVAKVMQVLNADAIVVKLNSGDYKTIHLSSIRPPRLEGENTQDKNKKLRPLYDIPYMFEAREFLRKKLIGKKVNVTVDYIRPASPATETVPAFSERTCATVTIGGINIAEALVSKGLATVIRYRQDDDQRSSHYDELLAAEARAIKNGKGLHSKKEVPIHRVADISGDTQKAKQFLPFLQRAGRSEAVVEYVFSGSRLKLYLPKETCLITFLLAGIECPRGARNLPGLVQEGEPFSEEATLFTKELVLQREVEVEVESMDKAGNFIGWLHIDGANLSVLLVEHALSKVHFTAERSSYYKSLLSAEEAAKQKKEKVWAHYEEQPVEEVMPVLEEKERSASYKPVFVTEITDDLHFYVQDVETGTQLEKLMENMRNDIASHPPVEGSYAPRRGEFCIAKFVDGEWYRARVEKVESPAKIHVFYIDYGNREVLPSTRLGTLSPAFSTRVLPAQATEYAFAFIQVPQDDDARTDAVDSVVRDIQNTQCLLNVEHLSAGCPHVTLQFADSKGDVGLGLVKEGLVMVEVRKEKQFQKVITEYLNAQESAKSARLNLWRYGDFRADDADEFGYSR

| Kd (SN1-SN2 (16-339)) | Kd (SN3-SN4-TSN (340-888)) | Molecule | binding result (SND1 full-length) |
| --- | --- | --- | --- |
| 12.1 µM | 5.59 µM | Cc1ccc(C(=O)Nc2ccc(S(=O)(=O)O)c3cc(S(=O)(=O)O)cc(S(=O)(=O)O)c23)cc1NC(=O)c1cccc(NC(=O)Nc2cccc(C(=O)Nc3cc(C(=O)Nc4ccc(S(=O)(=O)O)c5cc(S(=O)(=O)O)cc(S(=O)(=O)O)c45)ccc3C)c2)c1 [Suramin] | – |
| – | – | UGGAAUGUAAAGAAGUAUGUAU (ssRNA) [miR-1-3p FP tracer] | binds |
